# Source: patent US9108926B2, “Disubstituted 5-fluoro-pyrimidines” (Bayer Intellectual Property GmbH, priority 2011, dated 2015)
# Where two headings read alike, the source gives them in different places.
# Experiments:
# HeLa cells = assay: Proliferation assay, HeLa; assay type: cell-based; details: Homo sapiens, 96 h, read-out: Inhibition of HeLa cell proliferation IC50
# Experimental: (§1) After 24 hours, the cells of one plate (zero-point plate) were stained with crystal violet (see below), while the medium of the other plates was replaced by fresh culture medium (200 μl), to which the test substances were added in various concentrations (0 μM, as well as in the range of 0.001-10 μM; the final concentration of the solvent dimethyl sulfoxide was 0.5%). The cells were incubated for 4 days in the presence of test substances. Cell proliferation was determined by staining the cells with crystal violet: the cells were fixed by adding 20 μl/measuring point of an 11% glutaric aldehyde solution for 15 minutes at room temperature. After three washing cycles of the fixed cells with water, the plates were dried at room temperature. The cells were stained by adding 100 μl/measuring point of a 0.1% crystal violet solution (pH 3.0). After three washing cycles of the stained cells with water, the plates were dried at room temperature. The dye was dissolved by adding 100 μl/measuring point of a 10% acetic acid solution. […] The change of cell number, in percent, was calculated by normalization of the measured values to the extinction values of the zero-point plate (=0%) and the extinction of the untreated (0 μm) cells (=100%).
# CDK2/CycE = CDK2/CycE (Homo sapiens, UniProt P24941); assay: CDK2/CycE kinase assay (TR-FRET, Method 2)
# Excerpt: CDK2/CycE-inhibitory activity of compounds of the present invention was quantified employing the CDK2/CycE TR-FRET assay as described in the following paragraphs:
# Recombinant fusion proteins of GST and human CDK2 and of GST and human CycE, expressed in insect cells (Sf9) and purified by Glutathion-Sepharose affinity chromatography, were purchased from ProQinase GmbH (Freiburg, Germany). As substrate for the kinase reaction biotinylated peptide biotin-Ttds-[sequence] (C-terminus in amid form) was used which can be purchased e.g. form the company JERINI Peptide Technologies (Berlin, Germany).
# For the assay 50 nl of a 100 fold concentrated solution of the test compound in DMSO was pipetted into a black low volume 384 well microtiter plate (Greiner Bio-One, Frickenhausen, Germany), 2 μl of a solution of CDK2/CycE in aqueous assay buffer [50 mM Tris/HCl pH 8.0, 10 mM MgCl2, 1.0 mM dithiothreitol, 0.1 mM sodium ortho-vanadate, 0.01% (v/v) Nonidet-P40 (Sigma)] were added and the mixture was incubated for 15 min at 22° C. to allow pre-binding of the test compounds to the enzyme before the start of the kinase reaction. Then the kinase reaction was started by the addition of 3 μl of a solution of adenosine-tri-phosphate (ATP, 16.7 μM=>final conc. in the 5 μl assay volume is 10 μM) and substrate (1.25 μM=>final conc. in the 5 μl assay volume is 0.75 μM) in assay buffer and the resulting mixture was incubated for a reaction time of 25 min at 22° C. The concentration of CDK2/CycE was adjusted depending of the activity of the enzyme lot and was chosen appropriate to have the assay in the linear range, typical concentrations were in the range of 130 ng/mL. The reaction was stopped by the addition of 5 μl of a solution of TR-FRET detection reagents (0.2 μM streptavidine-XL665 [Cisbio Bioassays, Codolet, France] and 1 nM anti-RB(pSer807/pSer811)-antibody from BD Pharmingen [#558389] and 1.2 nM LANCE EU-W1024 labeled anti-mouse IgG antibody [Perkin-Elmer, product no. AD0077]) in an aqueous EDTA-solution (100 mM EDTA, 0.2% (w/v) bovine serum albumin in 100 mM HEPES/NaOH pH 7.0).
# The resulting mixture was incubated 1 h at 22° C. to allow the formation of complex between the phosphorylated biotinylated peptide and the detection reagents. Subsequently the amount of phosphorylated substrate was evaluated by measurement of the resonance energy transfer from the Eu-chelate to the streptavidine-XL. Therefore, the fluorescence emissions at 620 nm and 665 nm after excitation at 350 nm was measured in a TR-FRET reader, e.g. a Rubystar (BMG Labtechnologies, Offenburg, Germany) or a Viewlux (Perkin-Elmer). The ratio of the emissions at 665 nm and at 622 nm was taken as the measure for the amount of phosphorylated substrate.
# Caco-2 cells = assay: Proliferation assay, Caco-2; assay type: cell-based; details: Homo sapiens, read-out: Inhibition of Caco-2 cell proliferation IC50
# Experimental: as §1
# B16F10 cells = assay: Proliferation assay, B16F10; assay type: cell-based; details: Mus musculus, B16-F10, 96 h, read-out: Inhibition of B16F10 cell proliferation IC50
# Experimental: as §1
# CDK9/CycT1 [1] = molecular target: T1, CDK9/CycT1 (Homo sapiens, UniProt P50750); assay: CDK9/CycT1 kinase assay (TR-FRET, Method 1a)
# Excerpt: CDK9/CycT1-inhibitory activity of compounds of the present invention was quantified employing the CDK9/CycT1 TR-FRET assay as described in the following paragraphs:
# Recombinant full-length His-tagged human CDK9 and CycT1, expressed in insect cells and purified by Ni-NTA affinity chromatography, were purchased from Invitrogen (Cat. No PV4131). As substrate for the kinase reaction biotinylated peptide biotin-Ttds-[sequence] (C-terminus in amid form) was used which can be purchased e.g. form the company JERINI Peptide Technologies (Berlin, Germany).
# For the assay 50 nl of a 100 fold concentrated solution of the test compound in DMSO was pipetted into a black low volume 384 well microtiter plate (Greiner Bio-One, Frickenhausen, Germany), 2 μl of a solution of CDK9/CycT1 in aqueous assay buffer [50 mM Tris/HCl pH 8.0, 10 mM MgCl2, 1.0 mM dithiothreitol, 0.1 mM sodium ortho-vanadate, 0.01% (v/v) Nonidet-P40 (Sigma)] were added and the mixture was incubated for 15 min at 22° C. to allow pre-binding of the test compounds to the enzyme before the start of the kinase reaction. Then the kinase reaction was started by the addition of 3 μl of a solution of adenosine-tri-phosphate (ATP, 16.7 μM=>final conc. in the 5 μl assay volume is 10 μM) and substrate (1.67 μM=>final conc. in the 5 μl assay volume is 1 μM) in assay buffer and the resulting mixture was incubated for a reaction time of 25 min at 22° C. The concentration of CDK9/CycT1 was adjusted depending of the activity of the enzyme lot and was chosen appropriate to have the assay in the linear range, typical concentrations were in the range of 1 μg/mL. The reaction was stopped by the addition of 5 μl of a solution of TR-FRET detection reagents (0.2 μM streptavidine-XL665 [Cisbio Bioassays, Codolet, France] and 1 nM anti-RB(pSer807/pSer811)-antibody from BD Pharmingen [#558389] and 1.2 nM LANCE EU-W1024 labeled anti-mouse IgG antibody [Perkin-Elmer, product no. AD0077]) in an aqueous EDTA-solution (100 mM EDTA, 0.2% (w/v) bovine serum albumin in 100 mM HEPES/NaOH pH 7.0).
# (§2) The resulting mixture was incubated 1 h at 22° C. to allow the formation of complex between the phosphorylated biotinylated peptide and the detection reagents. Subsequently the amount of phosphorylated substrate was evaluated by measurement of the resonance energy transfer from the Eu-chelate to the streptavidine-XL. Therefore, the fluorescence emissions at 620 nm and 665 nm after excitation at 350 nm was measured in a HTRF reader, e.g. a Rubystar (BMG Labtechnologies, Offenburg, Germany) or a Viewlux (Perkin-Elmer). The ratio of the emissions at 665 nm and at 622 nm was taken as the measure for the amount of phosphorylated substrate.
# NCI-H460 cells = assay: Proliferation assay, NCI-H460; assay type: cell-based; details: Homo sapiens, read-out: Inhibition of NCI-H460 cell proliferation IC50
# Experimental: as §1
# CDK9/CycT1 [2] = molecular target: T1, CDK9/CycT1
# Experimental: CDK9/CycT1 High ATP Kinase Assay
# CDK9/CycT1-inhibitory activity of compounds of the present invention at a high ATP concentration after preincubation of enzyme and test compounds was quantified employing the CDK9/CycT1 TR-FRET assay as described in the following paragraphs.
# Recombinant full-length His-tagged human CDK9 and CycT1, expressed in insect cells and purified by Ni-NTA affinity chromatography, were purchase from Invitrogen (Cat. No PV4131). As substrate for the kinase reaction biotinylated peptide biotin-Ttds-[sequence]
# For the assay 50 nl of a 100 fold concentrated solution of the test compound in DMSO was pipetted into a black low volume 384 well microtiter plate (Greiner Bio-One, Frickenhausen, Germany), 2 μl of a solution of CDK9/CycT1 in aqueous assay buffer [50 mM Tris/HCl pH 8.0, 10 mM MgCl2, 1.0 mM dithiothreitol, 0.1 mM sodium ortho-vanadate, 0.01% (v/v) Nonidet-P40 (Sigma)] were added and the mixture was incubated for 15 min at 22° C. to allow pre-binding of the test compounds to the enzyme before the start of the kinase reaction. Then the kinase reaction was started by the addition of 3 μl of a solution of adenosine-tri-phosphate (ATP, 3.3 mM=>final conc. in the 5 μl assay volume is 2 mM) and substrate (1.67 μM=>final conc. in the 5 μl assay volume is 1 μM) in assay buffer and the resulting mixture was incubated for a reaction time of 25 min at 22° C. The concentration of CDK9/CycT1 was adjusted depending of the activity of the enzyme lot and was chosen appropriate to have the assay in the linear range, typical concentrations were in the range of 0.5 μg/mL. The reaction was stopped by the addition of 5 μl of a solution of TR-FRET detection reagents (0.2 μM streptavidine-XL665 [Cisbio Bioassays, Codolet, France] and 1 nM anti-RB(pSer807/pSer811)-antibody from BD Pharmingen [#558389] and 1.2 nM LANCE EU-W1024 labeled anti-mouse IgG antibody [Perkin-Elmer, product no. AD0077]) in an aqueous EDTA-solution (100 mM EDTA, 0.2% (w/v) bovine serum albumin in 100 mM HEPES/NaOH pH 7.0).
# as §2
# HeLa-MaTu-ADR cells = assay: Proliferation assay, HeLa-MaTu-ADR; assay type: cell-based; details: Homo sapiens, 96 h, read-out: Inhibition of HeLa-MaTu-ADR cell proliferation IC50
# Experimental: as §1
# DU145 cells = assay: Proliferation assay, DU145; assay type: cell-based; details: Homo sapiens, DU-145, 96 h, read-out: Inhibition of DU145 cell proliferation IC50
# Experimental: as §1
# Caco-2 permeation assay = assay type: in vitro ADME; details: human, pH 7.2, Caco-2, test compound 2 μM
# Experimental: 4. Caco-2 Permeation Assay:
# Caco-2 cells (purchased from DSMZ Braunschweig, Germany) were seeded at a density of 4.5×10^4 cells per well on 24 well insert plates, 0.4 μm pore size, and grown for 15 days in DMEM medium supplemented with 10% fetal bovine serum, 1% GlutaMAX (100×, GIBCO), 100 U/mL penicillin, 100 μg/mL streptomycin (GIBCO) and 1% non essential amino acids (100×). Cells were maintained at 37° C. in a humified 5% CO2 atmosphere. Medium was changed every 2-3 day. Before running the permeation assay, the culture medium was replaced by a FCS-free hepes-carbonate transport buffer (pH 7.2). For assessment of monolayer integrity the transepithelial electrical resistance (TEER) was measured. Test compounds were predissolved in DMSO and added either to the apical or basolateral compartment in final concentration of 2 μM in transport buffer. Before and after 2 h incubation at 37° C. samples were taken from both compartments. Analysis of compound content was done after precipitation with methanol by LC/MS/MS analysis. Permeability (Papp) was calculated in the apical to basolateral (A→B) and basolateral to apical (B→A) directions. […] The efflux ratio basolateral (B) to apical (A) was calculated by dividing the Papp B−A by the Papp A−B. In addition the compound recovery was calculated. The following reference compounds were used for the classification of the permeability class: Antipyrine, Pyrazosin, Verapamil, Fluvastatin, Cimetidine, Ranitidine, Atenolol, Sulfasalazine.
# [3] = 96 h, Caco-2, 4 days, crystal violet
# [4] = 96 h, NCI-H460, 4 days, crystal violet
# [5] = HeLa-MaTu-ADR, 4 days, crystal violet
# T1 sequence (P50750 whole entry): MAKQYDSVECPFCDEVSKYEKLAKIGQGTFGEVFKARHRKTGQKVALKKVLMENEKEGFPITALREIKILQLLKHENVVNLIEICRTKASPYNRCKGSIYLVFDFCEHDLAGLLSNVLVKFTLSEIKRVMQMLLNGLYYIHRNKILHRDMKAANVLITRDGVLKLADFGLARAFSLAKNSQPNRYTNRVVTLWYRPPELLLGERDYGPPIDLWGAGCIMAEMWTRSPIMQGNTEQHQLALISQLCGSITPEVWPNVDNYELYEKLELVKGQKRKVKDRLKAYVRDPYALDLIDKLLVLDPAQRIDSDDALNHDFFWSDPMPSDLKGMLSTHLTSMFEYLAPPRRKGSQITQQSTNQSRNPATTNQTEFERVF
# T1 sequence (O60563 whole entry partner): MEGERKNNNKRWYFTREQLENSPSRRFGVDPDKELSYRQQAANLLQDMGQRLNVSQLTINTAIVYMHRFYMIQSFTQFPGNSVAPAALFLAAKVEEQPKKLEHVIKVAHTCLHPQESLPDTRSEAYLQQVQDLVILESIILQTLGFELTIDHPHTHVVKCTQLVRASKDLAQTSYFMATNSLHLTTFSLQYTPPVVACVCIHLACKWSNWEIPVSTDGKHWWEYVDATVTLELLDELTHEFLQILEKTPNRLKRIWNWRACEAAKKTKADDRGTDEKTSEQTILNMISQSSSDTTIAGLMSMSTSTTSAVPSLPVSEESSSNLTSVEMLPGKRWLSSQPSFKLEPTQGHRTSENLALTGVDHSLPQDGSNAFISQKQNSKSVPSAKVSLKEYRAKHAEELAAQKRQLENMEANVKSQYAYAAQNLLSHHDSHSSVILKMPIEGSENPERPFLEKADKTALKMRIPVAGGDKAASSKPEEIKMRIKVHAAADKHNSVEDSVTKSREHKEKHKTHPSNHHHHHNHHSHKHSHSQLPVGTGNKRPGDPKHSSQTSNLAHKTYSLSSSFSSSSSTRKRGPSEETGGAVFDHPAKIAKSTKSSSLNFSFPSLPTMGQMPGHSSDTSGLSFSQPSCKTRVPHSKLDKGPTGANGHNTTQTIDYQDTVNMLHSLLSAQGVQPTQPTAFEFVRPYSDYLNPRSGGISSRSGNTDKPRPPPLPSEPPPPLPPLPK
Compound,"IC50 (HeLa cells; 4 days, crystal violet)",IC50 (CDK2/CycE),IC50 (Caco-2 cells; [3]),"IC50 (B16F10 cells; B16F10, 4 days, crystal violet)",IC50 (CDK9/CycT1 [1]),IC50 (NCI-H460 cells; [4]),IC50 (CDK9/CycT1 [2]),IC50 (HeLa-MaTu-ADR cells; [5]),"IC50 (DU145 cells; DU145, 4 days, crystal violet)",other results
"O=S(=O)(Cc1cccc(Nc2ncc(F)c(-c3cccc4c3OCCC4)n2)c1)C1CC1 [Example 10, N-{3-[(Cyclopropylsulfonyl)methyl]phenyl}-4-(3,4-dihydro-2H-chromen-8-yl)-5-fluoropyrimidin-2-amine]",1100 nM,210 nM,,,,,,,,
"COc1cc(F)ccc1-c1nc(Nc2cccc(CS(=O)(=O)C3CC3)c2)ncc1F [Example 14, N-{3-[(Cyclopropylsulfonyl)methyl]phenyl}-5-fluoro-4-(4-fluoro-2-methoxyphenyl)pyrimidin-2-amine]",670 nM,780 nM,,,8 nM,,40 nM,,,
"O=S(=O)(Cc1cccc(Nc2ncc(F)c(-c3ccc(F)cc3OCc3ccccc3)n2)c1)C1CCCCC1 [Example 6, 4-[2-(Benzyloxy)-4-fluorophenyl]-N-{3-[(cyclohexylsulfonyl)methyl]phenyl}-5-fluoropyrimidin-2-amine]",,≥ 20000 nM,,,51 nM,,98 nM,,,
"CS(=O)(=O)Cc1cccc(Nc2ncc(F)c(-c3cccc4c3OCCO4)n2)c1 [Example 13, 4-(2,3-Dihydro-1,4-benzodioxin-5-yl)-5-fluoro-N-{3-[(methylsulfonyl)methyl]phenyl}pyrimidin-2-amine]",,120 nM,,,6 nM,,5 nM,,,"IC50 (Caco-2 cells; Caco-2, 96 h): 220 nM; IC50 (B16F10 cells): 510 nM; IC50 (HeLa cells): 210 nM; IC50 (NCI-H460 cells; NCI-H460, 96 h): 340 nM; IC50 (HeLa-MaTu-ADR cells): 190 nM; IC50 (DU145 cells): 310 nM"
"COc1cc(F)ccc1-c1nc(Nc2cccc(CS(=O)(=O)C(C)C)c2)ncc1F [Example 7, 5-Fluoro-4-(4-fluoro-2-methoxyphenyl)-N-{3-[(propan-2-ylsulfonyl)methyl]phenyl}pyrimidin-2-amine]",1100 nM,510 nM,,,,,,,,
"COc1cc(F)ccc1-c1nc(Nc2cccc(CS(C)(=O)=O)c2)ncc1F [Example 1, 5-Fluoro-4-(4-fluoro-2-methoxyphenyl)-N-{3 [(methylsulfonyl)methyl]phenyl}pyrimidin-2-amine]",290 nM,300 nM,260 nM,310 nM,,330 nM,,170 nM,290 nM,"Papp A→B at 2 h, 2 μM (Caco-2 permeation assay; apical to basolateral, read-out: Papp A-B (Mari)): 20.6 ×10⁻⁶ cm/s; Papp B→A at 2 h, 2 μM (Caco-2 permeation assay; basolateral to apical, read-out: Papp B-A (Mari)): 8.5 ×10⁻⁶ cm/s"
"COc1cc(F)ccc1-c1nc(Nc2cccc(CS(=O)(=O)CCO)c2)ncc1F [Example 8, 2-[(3-{[5-Fluoro-4-(4-fluoro-2-methoxyphenyl)pyrimidin-2-yl]amino}benzyl)sulfonyl]ethanol]",1000 nM,310 nM,710 nM,950 nM,9 nM,710 nM,103 nM,380 nM,640 nM,
"CS(=O)(=O)Cc1cccc(Nc2ncc(F)c(-c3cccc4c3OCCC4)n2)c1 [Example 9, 4-(3,4-Dihydro-2H-chromen-8-yl)-5-fluoro-N-{3-[(methylsulfonyl)methyl]phenyl}pyrimidin-2-amine]",360 nM,300 nM,270 nM,340 nM,,340 nM,,200 nM,320 nM,

# Further lines, with some results ahead:
"IC50 (HeLa cells; 4 days, crystal violet)",IC50 (CDK2/CycE),IC50 (Caco-2 cells; [3]),"IC50 (B16F10 cells; B16F10, 4 days, crystal violet)",IC50 (CDK9/CycT1 [1]),IC50 (NCI-H460 cells; [4]),IC50 (CDK9/CycT1 [2]),IC50 (HeLa-MaTu-ADR cells; [5]),"IC50 (DU145 cells; DU145, 4 days, crystal violet)",Compound,other results
350 nM,840 nM,490 nM,820 nM,8 nM,370 nM,8 nM,300 nM,410 nM,"CS(=O)(=O)Cc1cccc(Nc2ncc(F)c(-c3ccc(F)cc3OCc3ccccc3)n2)c1 [Example 2, 4-[2-(Benzyloxy)-4-fluorophenyl]-5-fluoro-N-{3-[(methylsulfonyl)methyl]phenyl}pyrimidin-2-amine]",
1200 nM,1200 nM,1100 nM,1200 nM,10 nM,1200 nM,10 nM,1000 nM,1300 nM,"COCCS(=O)(=O)Cc1cccc(Nc2ncc(F)c(-c3ccc(F)cc3OCc3ccccc3)n2)c1 [Example 3, 4-[2-(Benzyloxy)-4-fluorophenyl]-5-fluoro-N-(3-{[(2-methoxyethyl)sulfonyl]methyl}phenyl)pyrimidin-2-amine]",
1800 nM,1100 nM,,,10 nM,,83 nM,,,"COc1cc(F)ccc1-c1nc(Nc2cccc(CS(=O)(=O)Cc3ccccc3)c2)ncc1F [Example 15, N-{3-[(Benzylsulfonyl)methyl]phenyl}-5-fluoro-4-(4-fluoro-2-methoxyphenyl)-pyrimidin-2-amine]",
,3100 nM,,,29 nM,,80 nM,,,"CC(C)(C)S(=O)(=O)Cc1cccc(Nc2ncc(F)c(-c3ccc(F)cc3OCc3ccccc3)n2)c1 [Example 4, 4-[2-(Benzyloxy)-4-fluorophenyl]-N-{3-[(tert-butylsulfonyl)methyl]phenyl}-5-fluoropyrimidin-2-amine]",
380 nM,820 nM,440 nM,410 nM,8 nM,320 nM,19 nM,350 nM,300 nM,"CS(=O)(=O)Cc1cccc(Nc2ncc(F)c(-c3ccc(F)cc3OCc3cccnc3)n2)c1 [Example 16, 5-Fluoro-4-[4-fluoro-2-(pyridin-3-ylmethoxy)phenyl]-N-{3-[(methylsulfonyl)methyl]phenyl}pyrimidin-2-amine]",
,1600 nM,,,14 nM,,20 nM,,,"CC(C)S(=O)(=O)Cc1cccc(Nc2ncc(F)c(-c3ccc(F)cc3OCc3ccccc3)n2)c1 [Example 5, 4-[2-(Benzyloxy)-4-fluorophenyl]-5-fluoro-N-{3-[(propan-2-ylsulfonyl)methyl]phenyl}pyrimidin-2-amine]",
1000 nM,1100 nM,,,,,,,,"CS(=O)(=O)Cc1cc(F)cc(Nc2ncc(F)c(-c3ccc(F)cc3OCc3ccccc3)n2)c1 [Example 11, 4-[2-(Benzyloxy)-4-fluorophenyl]-5-fluoro-N-{3-fluoro-5-[(methylsulfonyl)methyl]phenyl}pyrimidin-2-amine]",
